Test results reported in paper PMC4381330, “Identification of a novel selective agonist of PPARγ with no promotion of adipogenesis and less inhibition of osteoblastogenesis” (Scientific Reports, 2015).

Tests used:
3T3-L1 adipocytes = assay: 2-NBDG glucose uptake assay in mature 3T3-L1 adipocytes; type: cell-based, mouse; details: 1, 10, 30 μM, 24 h, 0.05 nM insulin, vs DMSO
Method: (§1) Glucose uptake activity was determined by measuring the uptake of 2-NBDG (2-(N-(7-nitrobenz-2-oxa-1, 3-diazol-4-yl)amino)-2-deoxyglucose, Invitrogen). […] Glucose uptake was initiated by addition of 1 mM 2-NBDG diluted in PBS. After 1 h, it was terminated by removing the contents of the wells and washing the cells with PBS. The glucose uptake was quantified by measuring the fluorescence intensity of cell lysates (prepared with neutral lysis buffer) at 485 nm excitation and 528 nm emission, and normalized to the corresponding protein content.

[1] = molecular target: T1, human PPARγ-LBD (corepressor peptide displacement) (Homo sapiens, UniProt P37231); assay: LanthaScreen TR-FRET corepressor peptide displacement assay; type: biochemical
T1 construct: incubated with GST-fused human PPARγ-LBD, terbium-labeled anti-GST antibody; purchased Invitrogen
T1 sequence (P37231 238-503 limits assumed): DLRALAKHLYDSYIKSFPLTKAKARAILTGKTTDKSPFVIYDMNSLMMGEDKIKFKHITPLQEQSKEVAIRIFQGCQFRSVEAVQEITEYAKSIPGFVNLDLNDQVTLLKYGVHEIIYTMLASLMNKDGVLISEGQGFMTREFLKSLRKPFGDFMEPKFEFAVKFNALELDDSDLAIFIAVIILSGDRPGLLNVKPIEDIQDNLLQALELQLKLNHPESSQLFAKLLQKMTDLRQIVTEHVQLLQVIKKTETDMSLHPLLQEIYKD
Method: (§2) PPARγ coregulator peptide interaction assay was performed by the LanthaScreen TR-FRET PPARγ Coactivator Assay Kit (Invitrogen) according to the manufacturer's instructions. Serial concentrations of compounds were incubated with GST-fused human PPARγ-LBD, terbium-labeled anti-GST antibody and fluorescein-labeled peptide for 4 h. The measurement and data calculation were as above.

L02 normal hepatocytes = assay: 2-NBDG glucose uptake assay in L02 cells; type: cell-based; details: 24 h, absence or presence of insulin
Method: as §1

human PPARγ LBD = molecular target: T2, human PPARγ LBD (Homo sapiens, UniProt P37231); assay: LanthaScreen TR-FRET PPARγ competitive binding assay; details: purified human PPARγ LBD
T2 construct: incubated with GST-fused human PPARγ-LBD, terbium-labeled anti-GST antibody; purchased Invitrogen
T2 sequence (P37231 238-503 limits assumed): T1 sequence (P37231 238-503 limits assumed)
Method: The LanthaScreen time-resolved fluorescence resonance energy transfer (TR-FRET) PPARγ competitive binding assay (Invitrogen) was performed according to the manufacturer's protocol. […] The FRET signal was measured by excitation at 340 nm and emission at 520 nm for fluorescein and 495 nm for terbium. In this assay, test compounds' binding to PPARγ LBD competed with Pan-PPAR Green and replaced it, resulting in a decrease of signal. The ability of binding to the PPARγ-LBD was measured by the decrease of the 520 nm/495 nm ratio. Graphs were plotted as fold changes of the FRET signal for compounds over the DMSO-only control.

diabetic KKAy mice = assay: Diabetic KKAy mice, 21 days treatment (fasting blood glucose, OGTT, ITT, body weight)
Method: Fasting blood glucose was measured with Onetoch Ultra Teststrip (Johnson & Johnson) at day 0, 3, 7, 14, 21, and body weight were monitored during these days.
After 14 days of treatment, oral glucose tolerance test (OGTT) was performed. Mice were fasted for 6 h with free access to water. 2 g/kg of glucose was given by gavage and blood glucose was measured at 0, 30, 60, 90, and 120 min.
After 21 days of feeding, insulin tolerance test (ITT) was carried out. Mice were fasted for 4 h before being injected 1 U/kg of recombinant human insulin (Novo Nordisk) subcutaneously, and blood glucose was measured at 0, 40, 90, and 120 min after insulin injection.

PPARγ LBD mutants = type: cell-based, human; details: compared with wild-type PPARγ LBD
Method: All chemicals were purchased from Sigma-Aldrich (St. Louis, MO, USA). All medium and serum were obtained from Gibco (Invitrogen). […] Mutations in pBIND-PPARγ-LBD were created by site-directed mutagenesis using the Fast Mutagenesis System (TransGen Biotech, Beijing, China).
The determination of nuclear receptor activation was performed as previously. Briefly, HEK293T cells were transfected with GAL4-pGL4-luc reporter plasmid and pBIND-PPARγ-LBD expression plasmid using Lipofectamine 2000 (Invitrogen) for 6 h before treatment with compounds for 20–24 h. Activity was determined by the Luciferase Assay System (Promega).

[2] = molecular target: T3, CDK5-mediated phosphorylation of PPARγ at Ser273 (Homo sapiens, UniProt P37231); assay: In vitro CDK5 assay of the PPARγ LBD (western blot); type: biochemical; details: to a similar extent as rosiglitazone
T3 construct: 0.5 μg purified PPARγ-LBD protein was incubated with 50 ng CDK5/p25 kinase (Millipore); Millipore (CDK5/p25 only)
T3 sequence (P37231 238-503 limits assumed): T1 sequence (P37231 238-503 limits assumed)
Method: The in vitro CDK assay was performed as described previously. Briefly, 0.5 μg purified PPARγ-LBD protein was incubated with 50 ng CDK5/p25 kinase (Millipore) in CDK assay buffer (Cell Signaling Technology, Danvers, MA, USA), followed by addition of 50 μM ATP and incubation for 30 min at room temperature. PPARγ-LBD was pre-incubated with test compounds for 30 min before performing the reaction. Phosphorylation of PPARγ Ser273 was analyzed by western blotting with an anti-CDK substrate antibody to detect phosphor-serine in the consensus motif for CDK substrate proteins (K/R-S-P-K/R) (Cell Signaling Technology).

[3] = molecular target: T4, human PPARγ-LBD (coactivator peptide recruitment) (Homo sapiens, UniProt P37231); assay: LanthaScreen TR-FRET coactivator peptide recruitment assay; type: biochemical
T4 construct: incubated with GST-fused human PPARγ-LBD, terbium-labeled anti-GST antibody; purchased Invitrogen
T4 sequence (P37231 238-503 limits assumed): T1 sequence (P37231 238-503 limits assumed)
Method: as §2

[4] = tested on: osteoblast marker genes in MC3T3-E1 cells; assay: Expression of osteoblast marker genes in MC3T3-E1 cells (qPCR); type: cell-based
Method: MC3T3-E1 cells were cultured in α-MEM to confluency in 24-well plates and then cultured in differentiation medium (α-MEM supplemented with 200 μM ascorbic acid and 10 mM β-glycerophosphate) for 7, 14, and 21 days, which was replaced every 3 days. The cells were treated with DMSO, rosiglitazone, or F12016 at the start of differentiation. At day 8, 15 and 22, total RNA was isolated, and real-time PCR was performed as described below.
Total RNA was extracted using TRIzol reagent (Invitrogen). First-strand cDNA was synthesized from the total RNA using a reverse transcriptional kit (TransGen). Quantitative PCR with SYBR Green (Roche Diagnostics, Lewes, UK) was performed on a Stratagene MX3000P real-time PCR system (Agilent). Melting curves were obtained, and the specificity of PCR products was checked on agarose gels. Relative mRNA expression was determined by the ΔΔCt method and normalized to GAPDH mRNA levels.

2-[2-(1, 2-dimethyl-1H-indol-3-yl)-2-oxo-acetylamino]-benzamide [Compound F12016]
insulin-stimulated glucose uptake (2-NBDG) (3T3-L1 adipocytes): enhanced the insulin-stimulated glucose uptake
EC50/IC50 NCoR ([1]; corepressor peptide NCoR): 4.425 µM
Efficacy NCoR ([1]; corepressor peptide NCoR, relative to rosiglitazone): 91%
EC50/IC50 SMRT ([1]; corepressor peptide SMRT): 2.861 µM
Efficacy SMRT ([1]; corepressor peptide SMRT, relative to rosiglitazone): 58%
displacement of corepressors NCoR and SMRT ([1]; dose-dependent, similar degree as rosiglitazone): able to efficiently displace corepressors
insulin sensitivity and glucose transport (2-NBDG) (L02 normal hepatocytes): significantly increased insulin sensitivity and promoted glucose transport
IC50 (human PPARγ LBD): 36.3 µM
Ki (human PPARγ LBD): 13 µM
fasting blood glucose (diabetic KKAy mice; F12016 75 mg/kg by gavage once daily, day 3, 7, 14 and 21, vs vehicle): significantly reduced fasting blood glucose
glucose tolerance (OGTT) (diabetic KKAy mice; after 14 days of treatment, 2 g/kg glucose, F12016 75 mg/kg): significantly improved glucose tolerance
blood glucose after insulin injection (ITT) (diabetic KKAy mice; after 21 days, insulin 1 IU/kg, F12016 75 mg/kg, rosiglitazone 5 mg/kg): significantly reduced blood glucose
average body weight (diabetic KKAy mice; after 21 days, F12016 75 mg/kg, rosiglitazone 5 mg/kg, vs vehicle): much lower than that of vehicle controls
activation of R288A, L340A and S342A mutants (PPARγ LBD mutants): reduced the ability of F12016 to activate PPARγ
activation of S289A, H323A, H449A and Y473A mutants (PPARγ LBD mutants): almost the same activity as the wild-type PPARγ LBD
CDK5-mediated phosphorylation of PPARγ [2]: effectively blocked CDK5-mediated phosphorylation of PPARγ
EC50/IC50 CBP ([3]; cofactor peptide CBP): 0.349 µM
Efficacy CBP ([3]; cofactor peptide CBP, maximum recruitment relative to rosiglitazone): 10%
EC50/IC50 PGC-1α ([3]; cofactor peptide PGC-1α): 21.81 µM
Efficacy PGC-1α ([3]; cofactor peptide PGC-1α, maximum recruitment relative to rosiglitazone): 57%
EC50/IC50 RAP250 ([3]; cofactor peptide RAP250): 5.765 µM
Efficacy RAP250 ([3]; cofactor peptide RAP250, maximum recruitment relative to rosiglitazone): 25%
EC50/IC50 SRC1 ([3]; cofactor peptide SRC1): 17.65 µM
Efficacy SRC1 ([3]; cofactor peptide SRC1, maximum recruitment relative to rosiglitazone): 26%
EC50/IC50 SRC3 ([3]; cofactor peptide SRC3): 15.06 µM
Efficacy SRC3 ([3]; cofactor peptide SRC3, maximum recruitment relative to rosiglitazone): 23%
EC50/IC50 TIF2 ([3]; cofactor peptide TIF2): 6.437 µM
Efficacy TIF2 ([3]; cofactor peptide TIF2, maximum recruitment relative to rosiglitazone): 17%
EC50/IC50 TRAP220 ([3]; cofactor peptide TRAP220): 5.132 µM
Efficacy TRAP220 ([3]; cofactor peptide TRAP220, maximum recruitment relative to rosiglitazone): 17%
recruitment of SRC 1 and 3 and RAP250 to PPARγ ([3]; span over the three cofactors): 22–27 % of rosiglitazone
expression of Alp and Col1 ([4]; 7 days): increased expressions of Alp and Col1
expression of RANKL ([4]; 7 days, rosiglitazone 1 μM, compared with control): not significantly changed
expression of Ibsp and Bglap ([4]; Ibsp 14 days, Bglap 21 days): did not show any significant reductions
